Laboratory results from article PMC9532703, “A novel small molecule RK-019 inhibits FGFR2-amplification gastric cancer cell proliferation and induces apoptosis in vitro and in vivo” (Frontiers in Pharmacology, 2022).

Assays:
Test in all cases: Kinase selectivity panel
Assay type in all cases: biochemical
Settings in all cases: read-out: Inhibition(%) @ 1 µM RK-019
SAPK4(h) = molecular target: T1, SAPK4(h) (Homo sapiens, UniProt O15264)
T1 construct: purchased Eurofins Discovery Services (KinaseProfiler)
Outline: (§1)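 Compound screened at 1 µM against a panel of 422 recombinant human kinases using an in vitro ATP-site competition binding assay; values reported as inhibition ratio.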

MST2(h) = molecular target: T2, MST2(h) (Homo sapiens, UniProt Q13188)
T2 construct: purchased Eurofins Discovery Services (KinaseProfiler)
Outline: as §1

NEK6(h) = molecular target: T3, NEK6(h) (Homo sapiens, UniProt Q9HC98)
T3 construct: purchased Eurofins Discovery Services (KinaseProfiler)
Outline: as §1

EphA7(h) = molecular target: T4, EphA7(h) (Homo sapiens, UniProt Q15375)
T4 construct: purchased Eurofins Discovery Services (KinaseProfiler)
Outline: as §1

PKR(h) = molecular target: T5, PKR(h) (Homo sapiens, UniProt P19525)
T5 construct: purchased Eurofins Discovery Services (KinaseProfiler)
T5 sequence (P19525 whole entry): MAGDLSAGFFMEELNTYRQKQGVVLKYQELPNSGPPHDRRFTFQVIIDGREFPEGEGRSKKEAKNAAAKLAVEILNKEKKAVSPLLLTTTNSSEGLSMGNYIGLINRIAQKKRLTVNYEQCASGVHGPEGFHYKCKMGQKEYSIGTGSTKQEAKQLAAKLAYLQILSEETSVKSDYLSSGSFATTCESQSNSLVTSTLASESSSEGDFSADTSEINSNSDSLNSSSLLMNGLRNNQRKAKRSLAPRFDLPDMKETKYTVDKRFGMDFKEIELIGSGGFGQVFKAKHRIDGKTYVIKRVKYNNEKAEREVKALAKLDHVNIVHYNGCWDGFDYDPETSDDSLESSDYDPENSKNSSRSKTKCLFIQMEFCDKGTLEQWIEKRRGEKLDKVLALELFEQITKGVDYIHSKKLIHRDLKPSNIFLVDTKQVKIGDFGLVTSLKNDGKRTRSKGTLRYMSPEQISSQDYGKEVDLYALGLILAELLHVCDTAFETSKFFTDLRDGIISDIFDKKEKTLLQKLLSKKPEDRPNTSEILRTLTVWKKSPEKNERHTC
Outline: as §1

Arg(h) = molecular target: T6, Arg(h) (Homo sapiens, UniProt P42684)
T6 construct: purchased Eurofins Discovery Services (KinaseProfiler)
Outline: as §1

STK16(h) = molecular target: T7, STK16(h) (Homo sapiens, UniProt O75716)
T7 construct: purchased Eurofins Discovery Services (KinaseProfiler)
Outline: as §1

PRK1(h) = molecular target: T8, PRK1(h) (Homo sapiens, UniProt Q16512)
T8 construct: purchased Eurofins Discovery Services (KinaseProfiler)
Outline: as §1

CaMKIγ(h) = molecular target: T9, CaMKIγ(h) (Homo sapiens, UniProt Q96NX5)
T9 construct: purchased Eurofins Discovery Services (KinaseProfiler)
Outline: as §1

STK32B(h) = molecular target: T10, STK32B(h) (Homo sapiens, UniProt Q9NY57)
T10 construct: purchased Eurofins Discovery Services (KinaseProfiler)
Outline: as §1

HIPK2(h) = molecular target: T11, HIPK2(h) (Homo sapiens, UniProt Q9H2X6)
T11 construct: purchased Eurofins Discovery Services (KinaseProfiler)
Outline: as §1

PRP4(h) = molecular target: T12, PRP4(h) (Homo sapiens, UniProt Q13523)
T12 construct: purchased Eurofins Discovery Services (KinaseProfiler)
Outline: as §1

MKK4(m) = molecular target: T13, MKK4(m) (Mus musculus, UniProt P47809)
T13 construct: purchased Eurofins Discovery Services (KinaseProfiler)

Src(1-530)(h) = molecular target: T14, Src(1-530)(h) (Homo sapiens, UniProt P12931)
T14 construct: purchased Eurofins Discovery Services (KinaseProfiler)
Outline: as §1

CDK17/cyclinY(h) = molecular target: T15, CDK17/cyclinY(h) (Homo sapiens, UniProt Q00537)
T15 construct: purchased Eurofins Discovery Services (KinaseProfiler)
Outline: as §1

ATR/ATRIP(h) = molecular target: T16, ATR/ATRIP(h) (Homo sapiens, UniProt Q13535)
T16 construct: purchased Eurofins Discovery Services (KinaseProfiler)
T16 sequence (Q13535 whole entry): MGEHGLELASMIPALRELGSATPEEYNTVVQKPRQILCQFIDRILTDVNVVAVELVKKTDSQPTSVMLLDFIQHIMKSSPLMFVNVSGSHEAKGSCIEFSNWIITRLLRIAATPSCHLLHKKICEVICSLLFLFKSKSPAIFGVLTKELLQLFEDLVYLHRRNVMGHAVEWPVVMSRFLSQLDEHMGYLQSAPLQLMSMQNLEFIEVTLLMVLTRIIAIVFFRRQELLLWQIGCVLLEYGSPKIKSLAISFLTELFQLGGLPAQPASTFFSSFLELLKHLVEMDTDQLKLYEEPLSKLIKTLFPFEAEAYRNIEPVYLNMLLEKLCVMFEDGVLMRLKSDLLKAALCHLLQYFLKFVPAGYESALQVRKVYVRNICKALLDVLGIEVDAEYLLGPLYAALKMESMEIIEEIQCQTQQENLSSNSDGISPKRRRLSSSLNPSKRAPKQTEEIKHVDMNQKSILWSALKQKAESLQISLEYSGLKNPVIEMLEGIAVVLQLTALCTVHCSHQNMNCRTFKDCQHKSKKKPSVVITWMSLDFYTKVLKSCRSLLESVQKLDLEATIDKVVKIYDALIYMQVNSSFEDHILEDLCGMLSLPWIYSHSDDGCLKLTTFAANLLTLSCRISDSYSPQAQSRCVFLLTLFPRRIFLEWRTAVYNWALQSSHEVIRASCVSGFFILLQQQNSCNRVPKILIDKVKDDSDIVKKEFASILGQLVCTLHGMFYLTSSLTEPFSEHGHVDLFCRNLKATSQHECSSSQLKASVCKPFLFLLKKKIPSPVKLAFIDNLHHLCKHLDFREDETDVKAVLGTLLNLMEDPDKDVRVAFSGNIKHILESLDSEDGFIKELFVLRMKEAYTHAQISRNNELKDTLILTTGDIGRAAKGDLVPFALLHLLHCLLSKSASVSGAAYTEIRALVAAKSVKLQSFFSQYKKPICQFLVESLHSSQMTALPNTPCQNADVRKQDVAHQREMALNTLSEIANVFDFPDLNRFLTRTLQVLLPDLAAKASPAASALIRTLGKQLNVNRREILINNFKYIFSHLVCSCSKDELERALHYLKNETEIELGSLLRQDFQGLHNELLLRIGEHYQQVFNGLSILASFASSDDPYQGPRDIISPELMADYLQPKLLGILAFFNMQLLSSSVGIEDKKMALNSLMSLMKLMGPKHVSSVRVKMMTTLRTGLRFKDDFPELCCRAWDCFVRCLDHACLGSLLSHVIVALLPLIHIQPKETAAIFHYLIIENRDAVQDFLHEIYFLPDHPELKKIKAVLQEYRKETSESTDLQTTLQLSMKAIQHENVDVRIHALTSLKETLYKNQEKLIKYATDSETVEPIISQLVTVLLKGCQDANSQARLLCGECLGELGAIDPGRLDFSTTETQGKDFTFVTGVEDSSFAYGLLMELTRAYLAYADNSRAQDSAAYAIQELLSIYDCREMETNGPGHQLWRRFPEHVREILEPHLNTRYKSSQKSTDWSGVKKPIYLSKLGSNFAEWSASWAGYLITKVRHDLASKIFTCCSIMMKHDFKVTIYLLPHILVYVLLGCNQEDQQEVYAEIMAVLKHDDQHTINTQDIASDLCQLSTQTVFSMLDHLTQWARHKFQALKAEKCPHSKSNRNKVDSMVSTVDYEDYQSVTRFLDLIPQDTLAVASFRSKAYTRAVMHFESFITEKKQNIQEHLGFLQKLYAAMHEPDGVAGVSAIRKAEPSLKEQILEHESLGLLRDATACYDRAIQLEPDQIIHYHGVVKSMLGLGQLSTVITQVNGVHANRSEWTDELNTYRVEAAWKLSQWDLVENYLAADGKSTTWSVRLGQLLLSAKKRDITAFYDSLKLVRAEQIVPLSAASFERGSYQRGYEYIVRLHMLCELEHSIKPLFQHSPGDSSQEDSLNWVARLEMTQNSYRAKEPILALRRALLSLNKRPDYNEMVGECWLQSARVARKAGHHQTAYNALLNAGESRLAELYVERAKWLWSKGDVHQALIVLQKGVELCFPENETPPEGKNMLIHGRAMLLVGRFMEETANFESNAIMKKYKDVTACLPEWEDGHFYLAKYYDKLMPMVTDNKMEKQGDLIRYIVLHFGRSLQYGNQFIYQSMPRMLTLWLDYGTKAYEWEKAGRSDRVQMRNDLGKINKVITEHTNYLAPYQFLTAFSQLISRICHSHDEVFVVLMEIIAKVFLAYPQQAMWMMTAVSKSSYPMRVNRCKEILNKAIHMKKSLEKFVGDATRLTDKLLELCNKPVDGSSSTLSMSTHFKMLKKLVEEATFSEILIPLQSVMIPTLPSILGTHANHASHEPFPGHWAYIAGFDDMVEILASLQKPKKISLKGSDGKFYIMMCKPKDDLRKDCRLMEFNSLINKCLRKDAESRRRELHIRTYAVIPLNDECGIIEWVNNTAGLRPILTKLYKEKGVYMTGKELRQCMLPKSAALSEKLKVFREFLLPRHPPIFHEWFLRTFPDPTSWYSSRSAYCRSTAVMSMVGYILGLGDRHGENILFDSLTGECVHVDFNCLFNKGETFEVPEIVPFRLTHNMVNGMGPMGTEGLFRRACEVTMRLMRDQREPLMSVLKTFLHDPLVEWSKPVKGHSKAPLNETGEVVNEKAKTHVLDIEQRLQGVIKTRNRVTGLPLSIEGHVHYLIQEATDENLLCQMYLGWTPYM
T16 sequence (Q8WXE1 whole entry partner): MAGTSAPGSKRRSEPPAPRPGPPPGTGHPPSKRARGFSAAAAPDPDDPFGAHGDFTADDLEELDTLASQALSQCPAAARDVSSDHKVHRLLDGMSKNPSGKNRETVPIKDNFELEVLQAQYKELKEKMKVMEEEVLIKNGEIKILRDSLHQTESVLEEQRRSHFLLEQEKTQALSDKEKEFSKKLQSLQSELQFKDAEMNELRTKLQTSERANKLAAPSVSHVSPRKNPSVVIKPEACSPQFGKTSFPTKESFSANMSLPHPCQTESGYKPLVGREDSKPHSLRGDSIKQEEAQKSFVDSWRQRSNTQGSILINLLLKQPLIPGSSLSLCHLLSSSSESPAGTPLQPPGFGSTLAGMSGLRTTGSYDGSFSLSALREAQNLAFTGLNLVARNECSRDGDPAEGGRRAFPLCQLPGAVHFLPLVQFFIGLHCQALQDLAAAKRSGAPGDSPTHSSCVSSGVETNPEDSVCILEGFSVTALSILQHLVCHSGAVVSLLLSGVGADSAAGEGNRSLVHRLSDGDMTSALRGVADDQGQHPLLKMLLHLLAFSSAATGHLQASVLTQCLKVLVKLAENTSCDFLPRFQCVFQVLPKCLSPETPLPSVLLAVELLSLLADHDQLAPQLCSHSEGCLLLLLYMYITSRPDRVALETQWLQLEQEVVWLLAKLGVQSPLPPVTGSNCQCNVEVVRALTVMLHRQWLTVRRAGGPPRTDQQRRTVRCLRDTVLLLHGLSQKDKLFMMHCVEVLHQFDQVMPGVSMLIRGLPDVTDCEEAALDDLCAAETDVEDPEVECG
Outline: as §1

ULK2(h) = molecular target: T17, ULK2(h) (Homo sapiens, UniProt Q8IYT8)
T17 construct: purchased Eurofins Discovery Services (KinaseProfiler)
Outline: as §1

CaMKIIδ(h) = molecular target: T18, CaMKIIδ(h) (Homo sapiens, UniProt Q13557)
T18 construct: purchased Eurofins Discovery Services (KinaseProfiler)
Outline: as §1

TSSK2(h) = molecular target: T19, TSSK2(h) (Homo sapiens, UniProt Q96PF2)
T19 construct: purchased Eurofins Discovery Services (KinaseProfiler)
Outline: as §1

NLK(h) = molecular target: T20, NLK(h) (Homo sapiens, UniProt Q9UBE8)
T20 construct: purchased Eurofins Discovery Services (KinaseProfiler)
Outline: as §1

CaMKIIγ(h) = molecular target: T21, CaMKIIγ(h) (Homo sapiens, UniProt Q13555)
T21 construct: purchased Eurofins Discovery Services (KinaseProfiler)
T21 sequence (Q13555 whole entry): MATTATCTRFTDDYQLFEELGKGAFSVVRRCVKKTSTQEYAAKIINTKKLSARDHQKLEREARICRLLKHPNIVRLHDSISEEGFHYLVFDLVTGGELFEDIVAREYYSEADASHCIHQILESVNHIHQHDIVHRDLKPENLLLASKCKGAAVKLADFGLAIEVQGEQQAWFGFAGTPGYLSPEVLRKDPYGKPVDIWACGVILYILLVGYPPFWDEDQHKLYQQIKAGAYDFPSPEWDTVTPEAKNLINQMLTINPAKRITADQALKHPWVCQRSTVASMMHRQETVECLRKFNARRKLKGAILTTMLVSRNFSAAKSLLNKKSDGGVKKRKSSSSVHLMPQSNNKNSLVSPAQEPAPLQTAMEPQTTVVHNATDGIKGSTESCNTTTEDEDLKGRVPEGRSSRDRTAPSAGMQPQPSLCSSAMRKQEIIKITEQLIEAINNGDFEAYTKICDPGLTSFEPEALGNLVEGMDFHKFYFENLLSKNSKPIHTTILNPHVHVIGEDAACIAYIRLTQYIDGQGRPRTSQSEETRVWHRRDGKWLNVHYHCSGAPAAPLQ
Outline: as §1

CDK18/cyclinY(h) = molecular target: T22, CDK18/cyclinY(h) (Homo sapiens, UniProt Q07002)
T22 construct: purchased Eurofins Discovery Services (KinaseProfiler)
Outline: as §1

DCAMKL3(h) = molecular target: T23, DCAMKL3(h) (Homo sapiens, UniProt Q9C098)
T23 construct: purchased Eurofins Discovery Services (KinaseProfiler)
Outline: as §1

PAK3(h) = molecular target: T24, PAK3(h) (Homo sapiens, UniProt O75914)
T24 construct: purchased Eurofins Discovery Services (KinaseProfiler)
Outline: as §1

PAR-1Bα(h) = molecular target: T25, PAR-1Bα(h) (Homo sapiens, UniProt Q7KZI7)
T25 construct: purchased Eurofins Discovery Services (KinaseProfiler)
Outline: as §1

MAPK2(m) = molecular target: T26, MAPK2(m) (Mus musculus, UniProt P63085)
T26 construct: purchased Eurofins Discovery Services (KinaseProfiler)

TAO1(h) = molecular target: T27, TAO1(h) (Homo sapiens, UniProt Q7L7X3)
T27 construct: purchased Eurofins Discovery Services (KinaseProfiler)
Outline: as §1

[1] = molecular target: T28, PI3 Kinase (p110d/p85a)(m) (Mus musculus, UniProt O35904)
T28 construct: purchased Eurofins Discovery Services (KinaseProfiler)

TYK2(h) = molecular target: T29, TYK2(h) (Homo sapiens, UniProt P29597)
T29 construct: purchased Eurofins Discovery Services (KinaseProfiler)
Outline: as §1

JNK3(h) = molecular target: T30, JNK3(h) (Homo sapiens, UniProt P53779)
T30 construct: purchased Eurofins Discovery Services (KinaseProfiler)
Outline: as §1

Aurora-C(h) = molecular target: T31, Aurora-C(h) (Homo sapiens, UniProt Q9UQB9)
T31 construct: purchased Eurofins Discovery Services (KinaseProfiler)
T31 sequence (Q9UQB9 whole entry): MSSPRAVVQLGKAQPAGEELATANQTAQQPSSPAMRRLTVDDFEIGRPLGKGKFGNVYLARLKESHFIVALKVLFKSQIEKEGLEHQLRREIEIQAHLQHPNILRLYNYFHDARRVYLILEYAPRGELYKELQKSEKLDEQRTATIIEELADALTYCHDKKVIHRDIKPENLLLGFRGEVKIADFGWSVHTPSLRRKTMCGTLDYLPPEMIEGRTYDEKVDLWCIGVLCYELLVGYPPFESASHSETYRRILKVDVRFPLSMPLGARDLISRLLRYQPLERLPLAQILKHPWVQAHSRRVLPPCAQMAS
Outline: as §1

SRPK1(h) = molecular target: T32, SRPK1(h) (Homo sapiens, UniProt Q96SB4)
T32 construct: purchased Eurofins Discovery Services (KinaseProfiler)
Outline: as §1

STK32C(h) = molecular target: T33, STK32C(h) (Homo sapiens, UniProt Q86UX6)
T33 construct: purchased Eurofins Discovery Services (KinaseProfiler)
Outline: as §1

MYO3B(h) = molecular target: T34, MYO3B(h) (Homo sapiens, UniProt Q8WXR4)
T34 construct: purchased Eurofins Discovery Services (KinaseProfiler)
Outline: as §1

mTOR/FKBP12(h) = molecular target: T35, mTOR/FKBP12(h) (Homo sapiens, UniProt P42345)
T35 construct: purchased Eurofins Discovery Services (KinaseProfiler)
Outline: as §1

ChaK1(h) = molecular target: T36, ChaK1(h) (Homo sapiens, UniProt Q96QT4)
T36 construct: purchased Eurofins Discovery Services (KinaseProfiler)
Outline: as §1

[2] = molecular target: T37, PI3 Kinase (p110a/p65a)(h) (Homo sapiens, UniProt P42336)
T37 construct: purchased Eurofins Discovery Services (KinaseProfiler)
Outline: as §1

With COc1cc(OC)cc(N(CCN[C@H](C)CO)c2ccc3ncc(-c4cnn(C)c4)c(=O)n3c2)c1 [RK-019, (R)-7-((3,5-dimethoxyphenyl) (2-((1-hydroxypropan-2-yl)amino)ethyl)amino)-3-(1-methyl-1H-pyrazol-4-yl)-4H-pyrido [1,2-a]pyrimidin-4-one] the activity at 1 µM (SAPK4(h)) was 112%, the activity at 1 µM (MST2(h)) was 97% and the activity at 1 µM (NEK6(h)) was 97%. It also gave an activity at 1 µM (EphA7(h)) of 108%, an activity at 1 µM (PKR(h)) of 50% and an activity at 1 µM (Arg(h)) of 86%. It also gave an activity at 1 µM (STK16(h)) of 113%, an activity at 1 µM (PRK1(h)) of 105% and an activity at 1 µM (CaMKIγ(h)) of 93%. It also gave an activity at 1 µM (STK32B(h)) of 123%, an activity at 1 µM (HIPK2(h)) of 83% and an activity at 1 µM (PRP4(h)) of 90%. For the same compound, the activity at 1 µM (MKK4(m)) was 107%, the activity at 1 µM (Src(1-530)(h)) was 45% and the activity at 1 µM (CDK17/cyclinY(h)) was 104%. For the same compound, the activity at 1 µM (ATR/ATRIP(h)) was 107%, the activity at 1 µM (ULK2(h)) was 107% and the activity at 1 µM (CaMKIIδ(h)) was 108%. For the same compound, the activity at 1 µM (TSSK2(h)) was 91%, the activity at 1 µM (NLK(h)) was 86% and the activity at 1 µM (CaMKIIγ(h)) was 106%. The activity at 1 µM (CDK18/cyclinY(h)) was 96%, the activity at 1 µM (DCAMKL3(h)) was 127% and the activity at 1 µM (PAK3(h)) was 97%. For the same compound, the activity at 1 µM (PAR-1Bα(h)) was 92%, the activity at 1 µM (MAPK2(m)) was 109% and the activity at 1 µM (TAO1(h)) was 115%. It also gave an activity at 1 µM [1] of 98%, an activity at 1 µM (TYK2(h)) of 96% and an activity at 1 µM (JNK3(h)) of 91%. It also gave an activity at 1 µM (Aurora-C(h)) of 86%, an activity at 1 µM (SRPK1(h)) of 112% and an activity at 1 µM (STK32C(h)) of 72%. The activity at 1 µM (MYO3B(h)) was 106%, the activity at 1 µM (mTOR/FKBP12(h)) was 92% and the activity at 1 µM (ChaK1(h)) was 100%. It also gave an activity at 1 µM [2] of 94%.
